Data published in patent publication US20230125667A1, “NOVEL TDZD ANALOGS AS AGENTS THAT DELAY, PREVENT, OR REVERSE AGE-ASSOCIATED DISEASES AND AS ANTI-CANCER AND ANTILEUKEMIC AGENTS” (United States Government as represented by the Department …, priority 2020, published 2023).
Where two headings read alike, the source gives them in different places.

Legend:
CCRF-CEM = test: NCI-60 growth inhibition: CCRF-CEM (Leukemia); assay type: cell-based, human; details: Homo sapiens
HL-60(TB) = test: NCI-60 growth inhibition: HL-60(TB) (Leukemia); assay type: cell-based, human; details: Homo sapiens, HL-60
K-562 = test: NCI-60 growth inhibition: K-562 (Leukemia); assay type: cell-based, human; details: Homo sapiens, K562
MOLT-4 = test: NCI-60 growth inhibition: MOLT-4 (Leukemia); assay type: cell-based, human; details: Homo sapiens
RPMI-8226 = test: NCI-60 growth inhibition: RPMI-8226 (Leukemia); assay type: cell-based, human; details: Homo sapiens
SR = test: NCI-60 growth inhibition: SR (Leukemia); assay type: cell-based, human; details: Homo sapiens
EKVX = test: NCI-60 growth inhibition: EKVX (Non-Small-Cell Lung Cancer); assay type: cell-based, human; details: Homo sapiens
HOP-92 = test: NCI-60 growth inhibition: HOP-92 (Non-Small-Cell Lung Cancer); assay type: cell-based, human; details: Homo sapiens
NCI-H23 = test: NCI-60 growth inhibition: NCI-H23 (Non-Small-Cell Lung Cancer); assay type: cell-based, human; details: Homo sapiens
NCI-H460 = test: NCI-60 growth inhibition: NCI-H460 (Non-Small-Cell Lung Cancer); assay type: cell-based, human; details: Homo sapiens
COLO 205 = test: NCI-60 growth inhibition: COLO 205 (Colon Cancer); assay type: cell-based, human; details: Homo sapiens
HCT-15 = test: NCI-60 growth inhibition: HCT-15 (Colon Cancer); assay type: cell-based, human; details: Homo sapiens
HT29 = test: NCI-60 growth inhibition: HT29 (Colon Cancer); assay type: cell-based, human; details: Homo sapiens, HT-29
SW-620 = test: NCI-60 growth inhibition: SW-620 (Colon Cancer); assay type: cell-based, human; details: Homo sapiens
SF-268 = test: NCI-60 growth inhibition: SF-268 (CNS Cancer); assay type: cell-based, human; details: Homo sapiens
SF-539 = test: NCI-60 growth inhibition: SF-539 (CNS Cancer); assay type: cell-based, human; details: Homo sapiens
SNB-19 = test: NCI-60 growth inhibition: SNB-19 (CNS Cancer); assay type: cell-based, human; details: Homo sapiens
U251 = test: NCI-60 growth inhibition: U251 (CNS Cancer); assay type: cell-based, human; details: Homo sapiens, U-251
LOX IMVI = test: NCI-60 growth inhibition: LOX IMVI (Melanoma); assay type: cell-based, human; details: Homo sapiens
MALME-3M = test: NCI-60 growth inhibition: MALME-3M (Melanoma); assay type: cell-based, human; details: Homo sapiens
M14 = test: NCI-60 growth inhibition: M14 (Melanoma); assay type: cell-based, human; details: Homo sapiens
MDA-MB-435 = test: NCI-60 growth inhibition: MDA-MB-435 (Melanoma); assay type: cell-based, human; details: Homo sapiens
SK-MEL-2 = test: NCI-60 growth inhibition: SK-MEL-2 (Melanoma); assay type: cell-based, human; details: Homo sapiens
SK-MEL-28 = test: NCI-60 growth inhibition: SK-MEL-28 (Melanoma); assay type: cell-based, human; details: Homo sapiens
SK-MEL-5 = test: NCI-60 growth inhibition: SK-MEL-5 (Melanoma); assay type: cell-based, human; details: Homo sapiens
UACC-257 = test: NCI-60 growth inhibition: UACC-257 (Melanoma); assay type: cell-based, human; details: Homo sapiens
UACC-62 = test: NCI-60 growth inhibition: UACC-62 (Melanoma); assay type: cell-based, human; details: Homo sapiens
IGROV1 = test: NCI-60 growth inhibition: IGROV1 (Ovarian Cancer); assay type: cell-based, human; details: Homo sapiens, IGROV-1
OVCAR-3 = test: NCI-60 growth inhibition: OVCAR-3 (Ovarian Cancer); assay type: cell-based, human; details: Homo sapiens
OVCAR-4 = test: NCI-60 growth inhibition: OVCAR-4 (Ovarian Cancer); assay type: cell-based, human; details: Homo sapiens
OVCAR-5 = test: NCI-60 growth inhibition: OVCAR-5 (Ovarian Cancer); assay type: cell-based, human; details: Homo sapiens
OVCAR-8 = test: NCI-60 growth inhibition: OVCAR-8 (Ovarian Cancer); assay type: cell-based, human; details: Homo sapiens
786-0 = test: NCI-60 growth inhibition: 786-0 (Renal Cancer); assay type: cell-based, human; details: Homo sapiens
A498 = test: NCI-60 growth inhibition: A498 (Renal Cancer); assay type: cell-based, human; details: Homo sapiens
ACHN = test: NCI-60 growth inhibition: ACHN (Renal Cancer); assay type: cell-based, human; details: Homo sapiens
CAKI-1 = test: NCI-60 growth inhibition: CAKI-1 (Renal Cancer); assay type: cell-based, human; details: Homo sapiens
RXF 393 = test: NCI-60 growth inhibition: RXF 393 (Renal Cancer); assay type: cell-based, human; details: Homo sapiens
SN12C = test: NCI-60 growth inhibition: SN12C (Renal Cancer); assay type: cell-based, human; details: Homo sapiens
TK-10 = test: NCI-60 growth inhibition: TK-10 (Renal Cancer); assay type: cell-based, human; details: Homo sapiens
UO-31 = test: NCI-60 growth inhibition: UO-31 (Renal Cancer); assay type: cell-based, human; details: Homo sapiens
PC-3 = test: NCI-60 growth inhibition: PC-3 (Prostate Cancer); assay type: cell-based, human; details: Homo sapiens
DU-145 = test: NCI-60 growth inhibition: DU-145 (Prostate Cancer); assay type: cell-based, human; details: Homo sapiens
MCF7 = test: NCI-60 growth inhibition: MCF7 (Breast Cancer); assay type: cell-based, human; details: Homo sapiens
MDA-MB-231/ATCC = test: NCI-60 growth inhibition: MDA-MB-231/ATCC (Breast Cancer); assay type: cell-based, human; details: Homo sapiens
HS 578T = test: NCI-60 growth inhibition: HS 578T (Breast Cancer); assay type: cell-based, human; details: Homo sapiens
BT-549 = test: NCI-60 growth inhibition: BT-549 (Breast Cancer); assay type: cell-based, human; details: Homo sapiens
T-47D = test: NCI-60 growth inhibition: T-47D (Breast Cancer); assay type: cell-based, human; details: Homo sapiens, T47D
MDA-MB-468 = test: NCI-60 growth inhibition: MDA-MB-468 (Breast Cancer); assay type: cell-based, human; details: Homo sapiens; MDA-MB-468 (Breast Cancer); read-out: GI50
[1] = test system: MV4-11 cell line (myelomonocytic leukemia); details: MV4-11 cells
HCT-116 = test: NCI-60 growth inhibition: HCT-116 (Colon Cancer); details: Homo sapiens, HCT-116
[2] = test system: human leukemia cell lines; test: NCI-60 growth inhibition, leukemia cell lines
NCI-H522 = test: NCI-60 growth inhibition: NCI-H522 (Non-Small-Cell Lung Cancer); details: Homo sapiens, NCI-H522
SH-SY5Y-APPSw cells = test: Thioflavin-T staining of amyloid-like aggregates in SH-SY5Y-APPSw cells; assay type: cell-based, human; details: neuronal cells (FIG. 9)
Method: Several TDZD-conjugated drugs (putative GSK-3 inhibitors) were evaluated for their ability to reduce accumulation of protein aggregates, and for protection against aggregation-associated end-points in the following model systems: (i.) SH-SY5Y-APPSw, a neuroblastoma cell line expressing the Swedish mutation of Amyloid Precursor Protein (APPSw), and thus predisposed to form β-amyloid deposits; (ii.) C. elegans strain CL4176, a model of Alzheimer-like amyloidopathy that can be induced to express human Aβ1-42 in muscle, or may express it at a lower level without induction; (iii.) C. elegans strain AM141, a model of Huntington-like polyglutamine aggregation that constitutively expresses Q40::YFP (a tract of 40 glutamines fused in-frame to yellow fluorescent protein) in muscle cells and forms aggregates progressively with adult aging. The TDZD analog PNR-962 (a putative GSK-3 inhibitor) and other related compounds (not shown) were protective in all aggregation assays.
First, the effects of TDZD analogues were tested on the human neuroblastoma cell line SH-SY5Y-APPSw, a model of Alzheimer-like amyloid aggregation expressing the “Sw” mutant form of Amyloid Precursor Protein, APP. These drugs all produced significant reductions in amyloid-like aggregates, by 30-50% as quantified by thioflavin-T staining intensity (data for PNR-962 are shown in FIG. 4). Modified TDZD-8 analogues PNR-962 and BSK-179 are more anti-aggregative than TDZD-8, lowering total amyloid-staining intensity by a further 14% (data not shown).
Following previously described experimental procedures (Liu, et al. (2005). S100B-induced microglial and neuronal IL-1 expression is mediated by cell type-specific transcription factors. Journal of Neurochemistry. 92(3): 546-553), SH-SY5Y-APPSw neuronal cells expressing an aggregation-prone double mutant of amyloid precursor protein (APPSw) were cultured in DMEM plus 10% (v/v) fetal bovine serum (FBS) at 37° C. Cells were suspended in trypsin/EDTA and rinsed in PBS prior to re-plating or harvesting. […] Human neuroblastoma cells were treated with PNR962, either simultaneous with sAPPα or beginning 1 h prior to sAPPα addition (pre-treatment) in order to ascertain the protective benefits of PNR962 on protein aggregation in human neuroblastoma cell lines. A similar experimental procedure was followed to examine the effect of treatment with these analogs on non-neuronal human cells, exposing human embryonic kidney cells (HEK) that express tau-like aggregates (found in AD-associated diseases) to 0.001, 0.01, and 1-μM doses of TDZD-8 and its analogues.
To observe the protective effects of the novel TDZD analogs on protein aggregation in SY5Y-APPSw cells, using DMEM medium containing 10% fetal calf serum in […], cells were cultured at 37′C for 26 hrs allowing cells to approximately double in number. After 48 h of cell incubation in the presence of specified concentrations of drug or vehicle, cells were fixed 15 min in formaldehyde (4% v/v), washed, and stained 20 min at ˜22° C. in a dark container with 0.1% w/v Thioflavin T mixed with DAPI (1 μg/ml; Life Technologies, Grand Island, N.Y., USA). […] The intensity of aggregate/thioflavin-T fluorescence per field was quantified via an Image J plug-in developed in-house, and normalized to the number of DAPI^+ nuclei counted per field, to obtain an average intensity of aggregates per cell for each treatment.

[3] = Ibuprofen-TDZD analogs (Table 3)

C=C1C(=O)O[C@H]2[C@H]1CC/C(COC(=O)NCc1ccc(Cn3c(=O)sn(CCCI)c3=O)cc1)=C\CC[C@@]1(C)O[C@@H]21 [BSK-259]
GI50 (CCRF-CEM): 0.31 µM | GI50 (HL-60(TB)): 0.3 µM | GI50 (K-562): 0.34 µM | GI50 (MOLT-4): 0.29 µM | GI50 (RPMI-8226): 0.9 µM | GI50 (SR): 0.28 µM | GI50 (EKVX): 2.09 µM | GI50 (HOP-92): 1.22 µM | GI50 (NCI-H23): 2.11 µM | GI50 (NCI-H460): 3.2 µM | GI50 (COLO 205): 1.95 µM | GI50 (HCT-15): 1.89 µM | GI50 (HT29): 1.74 µM | GI50 (SW-620): 1.4 µM | GI50 (SF-268): 2.54 µM | GI50 (SF-539): 1.71 µM | GI50 (SNB-19): 3.12 µM | GI50 (U251): 1.75 µM | GI50 (LOX IMVI): 1.4 µM | GI50 (MALME-3M): 1.39 µM | GI50 (M14): 1.74 µM | GI50 (MDA-MB-435): 1.68 µM | GI50 (SK-MEL-2): 2.42 µM | GI50 (SK-MEL-28): 1.92 µM | GI50 (SK-MEL-5): 1.91 µM | GI50 (UACC-257): 1.79 µM | GI50 (UACC-62): 1.41 µM | GI50 (IGROV1): 1.75 µM | GI50 (OVCAR-3): 1.19 µM | GI50 (OVCAR-4): 1.46 µM | GI50 (OVCAR-5): 1.85 µM | GI50 (OVCAR-8): 3.04 µM | GI50 (786-0): 1.68 µM | GI50 (A498): 4.85 µM | GI50 (ACHN): 1.7 µM | GI50 (CAKI-1): 1.7 µM | GI50 (RXF 393): 1.52 µM | GI50 (SN12C): 1.57 µM | GI50 (TK-10): 1.71 µM | GI50 (UO-31): 1.52 µM | GI50 (PC-3): 1.94 µM | GI50 (DU-145): 1.73 µM | GI50 (MCF7): 1.41 µM | GI50 (MDA-MB-231/ATCC): 1.75 µM | GI50 (HS 578T): 3.17 µM | GI50 (BT-549): 1.38 µM | GI50 (T-47D): 1.79 µM | GI50 (MDA-MB-468): 1.54 µM | fold more cytotoxic than PTL [1]: 273 fold | fold more cytotoxic than TDZD-8 [1]: 329 fold | LD50, 7AAD (μM) 24 h ([1]; MMB-TDZD analogs (Table 2)): 0.01 µM | LD50, Alamar blue (μM) 24 h ([1]; MMB-TDZD analogs (Table 2)): 0.30 µM | LD50, YOPRO (μM) 24 h ([1]; MMB-TDZD analogs (Table 2)): 0.01 µM | LD50 ([1]; values in text): 10 nM | GI50 (HCT-116): 1.05 µM | GI50 ([2]; Homo sapiens): 0.28 to 0.9 µM | potency against leukemia cell lines (GI50 <1.0) ([2]; NCI panel): high potency against all 6 leukemia cell lines | GI50 (NCI-H522): 1.07 µM

CC(C)Cc1ccc(C(C)C(=O)NCc2ccc(Cn3c(=O)sn(CCCl)c3=O)cc2)cc1 (centres unmarked) [BSK-137]
reduction of aggregate intensity (Thioflavin-T staining) (SH-SY5Y-APPSw cells): 34% | LD50, 7AAD (μM) 24 h [1, 3]: 3.39 µM | LD50, Alamar blue (μM) 24 h [1, 3]: 7.00 µM | LD50, YOPRO (μM) 24 h [1, 3]: 3.28 µM
